pIC50: −log10 of the molar value.

Chain of human DGKζ (Q13574 other isoform, or with tags, fused parts or gaps): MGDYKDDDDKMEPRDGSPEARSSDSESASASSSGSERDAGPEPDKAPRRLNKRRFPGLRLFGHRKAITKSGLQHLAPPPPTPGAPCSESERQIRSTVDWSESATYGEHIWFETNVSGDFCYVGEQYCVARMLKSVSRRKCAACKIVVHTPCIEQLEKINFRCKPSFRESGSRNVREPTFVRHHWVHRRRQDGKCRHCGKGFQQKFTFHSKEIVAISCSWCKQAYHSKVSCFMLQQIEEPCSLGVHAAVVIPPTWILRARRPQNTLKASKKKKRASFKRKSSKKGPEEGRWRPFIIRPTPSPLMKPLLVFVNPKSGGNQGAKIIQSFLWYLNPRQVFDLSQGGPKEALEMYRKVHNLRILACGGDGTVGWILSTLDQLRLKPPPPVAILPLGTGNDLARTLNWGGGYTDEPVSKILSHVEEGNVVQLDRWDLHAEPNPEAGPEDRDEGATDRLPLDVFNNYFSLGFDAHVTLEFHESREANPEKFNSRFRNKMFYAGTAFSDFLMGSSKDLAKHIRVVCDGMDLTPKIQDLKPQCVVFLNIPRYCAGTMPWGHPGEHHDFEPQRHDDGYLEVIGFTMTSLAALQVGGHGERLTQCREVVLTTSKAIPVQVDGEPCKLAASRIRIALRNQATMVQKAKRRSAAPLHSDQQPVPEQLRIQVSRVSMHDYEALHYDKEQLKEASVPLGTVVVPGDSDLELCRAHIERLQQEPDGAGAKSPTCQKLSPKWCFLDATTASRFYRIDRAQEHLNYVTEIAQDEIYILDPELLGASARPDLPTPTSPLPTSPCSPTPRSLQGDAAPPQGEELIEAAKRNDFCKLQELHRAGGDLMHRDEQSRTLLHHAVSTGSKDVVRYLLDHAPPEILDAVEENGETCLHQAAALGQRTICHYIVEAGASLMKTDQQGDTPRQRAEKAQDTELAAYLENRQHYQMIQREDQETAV

The assay has as its target human DGKζ (Homo sapiens (Human), UniProt Q13574). Description: Human DGKζ kinase activity inhibition assay (ADP-Glo). As to conditions: in vitro human DGKζ kinase activity inhibition assay; read-out: IC50. Format: biochemical. The essentials:
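ADP-Glo luminescence, reflecting ADP produced, served as the readout of activity. Full-length human DGKζ, FLAG-tagged at the C-terminus and insect-cell expressed, was used; lipid substrate mix was sonicated with octyl-β-D-glucopyranoside in 50 mM MOPS pH 7.4.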
One may read the pIC50 as the IC50 on a negative log10 scale, so that one unit is a factor of ten. Turning to `COc1ccc(C(=O)c2sc(N(c3ccc(F)c(Cl)c3)C(C)C(N)=O)nc2N)cc1` (single isomer, unassigned) [Example 161.1, 2-(N-[4-amino-5-(4-methoxybenzoyl)thiazol-2-yl]-3-chloro-4-fluoro-anilino)propanamide], the pIC50 is 8.05. As to `CC(C(N)=O)N(c1ccc(OC(F)F)c(Cl)c1)c1nc(N)c(C(=O)c2ccncc2)s1` (racemic) [Example 203, rac-2-[N-[4-amino-5-(pyridine-4-carbonyl)thiazol-2-yl]-3-chloro-4-(difluoromethoxy)anilino]propanamide], the pIC50 is 6.42. On to `CC(C(N)=O)N(c1ccc(F)cc1)c1nc(N)c(C(=O)c2ccnc(C(F)F)c2)s1` (racemic) [Example 188, rac-2-(N-[4-amino-5-[2-(difluoromethyl)pyridine-4-carbonyl]thiazol-2-yl]-4-fluoro-anilino)propanamide], for which the pIC50 was 5.91. On to `CC(NC(=O)COc1ccc(C(=O)c2sc(N(c3ccc(F)cc3)C(C)C(N)=O)nc2N)cc1)c1ccccc1` (racemic) [Example 125, 2-(N-[4-amino-5-[4-[2-oxo-2-(1-phenylethylamino)ethoxy]benzoyl]thiazol-2-yl]-4-fluoro-anilino)propanamide], for which the negative logarithm of the IC50 (pIC50) is 7.36.

As for `CC(C(N)=O)N(c1ccc(F)cc1)c1nc(N)c(C(=O)c2ccc(OCC(=O)NCC(F)(F)F)cc2)s1` (racemic) [Example 99, rac-2-(N-[4-amino-5-[4-[2-oxo-2-(2,2,2-trifluoroethylamino)ethoxy]benzoyl]thiazol-2-yl]-4-fluoro-anilino)propanamide], the pIC50 was 7.12. With `CC(C(N)=O)N(c1ccc(F)cc1)c1nc(N)c(C(=O)c2ccc(Br)cc2)s1` (racemic) [Example 80, rac-2-(N-[4-amino-5-(4-bromobenzoyl)thiazol-2-yl]-4-fluoro-anilino)propanamide], the pIC50 is 7.97. For `CC(C(N)=O)N(c1ccc(Cl)c(F)c1)c1nc(N)c(C(=O)c2ccc(O)cc2)s1` (single isomer, unassigned; enantiomer 1) [Example 289, 2-(N-[4-amino-5-(4-hydroxybenzoyl)thiazol-2-yl]-4-chloro-3-fluoro-anilino)propanamide (enantiomer 1)], the pIC50 is 8.00. On to `CC(C(N)=O)N(c1ccc(OCc2ccccc2)cc1)c1nc(N)c(C(=O)c2ccc(OC(F)F)cc2)s1` (single isomer, unassigned) [Example 182.1, 2-(N-[4-amino-5-[4-(difluoromethoxy)benzoyl]thiazol-2-yl]-4-benzyloxy-anilino)propanamide], for which the pIC50 is 7.08. For the compound `CC(C(N)=O)N(c1ccc(F)cc1)c1nc(N)c(C(=O)c2ccc(O)cc2)s1` (racemic) [Example 157, rac-2-(N-[4-amino-5-(4-hydroxybenzoyl)thiazol-2-yl]-4-fluoro-anilino)propanamide], the pIC50 is 6.72. Turning to `CC(C(N)=O)N(c1ccc(OC(F)F)nc1)c1nc(N)c(C(=O)c2ccc(OC(F)F)cc2)s1` (racemic) [Example 254, rac-2-[[4-amino-5-[4-(difluoromethoxy)benzoyl]thiazol-2-yl]-[6-(difluoromethoxy)-3-pyridyl]amino]propanamide], the negative-log IC50 (pIC50) is 7.49. With `CC(C(N)=O)N(c1ccc(Cl)c(OC(F)F)c1)c1nc(N)c(C(=O)c2ccccc2)s1` (racemic) [Example 238, rac-2-[N-(4-amino-5-benzoyl-thiazol-2-yl)-4-chloro-3-(difluoromethoxy)anilino]propanamide] the figure was 6.18; with `CC(C(N)=O)N(c1ccc(F)c(F)c1)c1nc(N)c(C(=O)c2ccc(OC(F)F)nc2)s1` (racemic) [Example 163, rac-2-(N-[4-amino-5-[6-(difluoromethoxy)pyridine-3-carbonyl]thiazol-2-yl]-3,4-difluoro-anilino)propanamide], 8.05.

On to `CC(C(N)=O)N(c1ccc(OC(F)(F)F)c(F)c1)c1nc(N)c(C(=O)c2ccc(Cl)cc2)s1` (racemic) [Example 218, rac-2-[N-[4-amino-5-(4-chlorobenzoyl)thiazol-2-yl]-3-fluoro-4-(trifluoromethoxy)anilino]propanamide], for which the negative logarithm of the IC50 (pIC50) is 7.19. With `CC(C(N)=O)N(c1ccc(F)c(F)c1)c1nc(N)c(C(=O)c2ccc(OCc3ccccc3)cc2)s1` (single isomer, unassigned) [Example 165.2, 2-(N-[4-amino-5-(4-benzyloxybenzoyl)thiazol-2-yl]-3,4-difluoro-anilino)propanamide], the pIC50 is 6.48. For `CC(C(N)=O)N(c1ccc(OCc2ccccc2)cc1)c1nc(N)c(C(=O)c2ccc(OC(F)F)cc2)s1` (racemic) [Example 182, rac-2-(N-[4-amino-5-[4-(difluoromethoxy)benzoyl]thiazol-2-yl]-4-benzyloxy-anilino)propanamide], the negative logarithm of the IC50 (pIC50) was 7.04.

Consider `Cc1ccccc1N(c1nc(N)c(C(=O)c2ccccc2)s1)C(C)C(N)=O` (racemic) [Example 77, rac-2-(N-(4-amino-5-benzoyl-thiazol-2-yl)-2-methyl-anilino)propanamide], for which the pIC50 was 6.27. Consider `CC(C(N)=O)N(c1ccc(F)c(F)c1)c1nc(N)c(C(=O)c2ccncc2)s1` (single isomer, unassigned) [Example 50.1, 2-(N-[4-amino-5-(pyridine-4-carbonyl)thiazol-2-yl]-3,4-difluoro-anilino)propanamide], for which the negative logarithm of the IC50 (pIC50) was 6.90. With `CC(C(N)=O)N(c1ccc(OC(F)(F)F)nc1)c1nc(N)c(C(=O)c2ccccc2)s1` (racemic) [Example 228, rac-2-[(4-amino-5-benzoyl-thiazol-2-yl)-[6-(trifluoromethoxy)-3-pyridyl]amino]propanamide] the figure was 6.66; with `CC(C(N)=O)N(c1ccc(OC(F)(F)F)nc1)c1nc(N)c(C(=O)c2ccc(Cl)cc2)s1` (racemic) [Example 249, rac-2-[[4-amino-5-(4-chlorobenzoyl)thiazol-2-yl]-[6-(trifluoromethoxy)-3-pyridyl]amino]propanamide], 6.92; with `CC(C(N)=O)N(c1ccc(C(F)F)cc1)c1nc(N)c(C(=O)c2ccncc2)s1` (racemic) [Example 246, rac-2-[N-[4-amino-5-(pyridine-4-carbonyl)thiazol-2-yl]-4-(difluoromethyl)anilino]propanamide], 6.18. On to `CC(C(N)=O)N(c1ccc(F)cc1)c1nc(N)c(C(=O)c2ccc(NC(=O)C3CC3)cc2)s1` (racemic) [Example 177, rac-4-[4-[4-amino-2-(N-(2-amino-1-methyl-2-oxo-ethyl)-4-fluoro-anilino)thiazole-5-carbonyl]phenyl]cyclopropanecarboxamide], for which the pIC50 was 7.40. On to `Cc1cc(NC(=O)COc2ccc(C(=O)c3sc(N(c4ccc(F)cc4)C(C)C(N)=O)nc3N)cc2)no1` (racemic) [Example 103, rac-2-(N-[4-amino-5-[4-[2-[(5-methylisoxazol-3-yl)amino]-2-oxo-ethoxy]benzoyl]thiazol-2-yl]-4-fluoro-anilino)propanamide], for which the pIC50 is 7.38. On to `CC(C(N)=O)N(c1ccc(OC(F)(F)F)c(Cl)c1)c1nc(N)c(C(=O)c2ccc(Cl)cc2)s1` (racemic) [Example 223, rac-2-[N-[4-amino-5-(4-chlorobenzoyl)thiazol-2-yl]-3-chloro-4-(trifluoromethoxy)anilino]propanamide], for which the pIC50 is 6.63. In the case of `CC(C(N)=O)N(c1ccc(F)cc1)c1nc(N)c(C(=O)c2ccc(OCC(=O)Nc3ccc(F)cc3)cc2)s1` (racemic) [Example 122, rac-2-(N-[4-amino-5-[4-[2-(4-fluoroanilino)-2-oxo-ethoxy]benzoyl]thiazol-2-yl]-4-fluoro-anilino)propanamide], the pIC50 was 8.04. For the compound `COc1ccc(C(=O)c2sc(N(c3ccc(Cl)c(F)c3)C(C)C(N)=O)nc2N)cc1` (single isomer, unassigned) [Example 59.2, 2-(N-[4-amino-5-(4-methoxybenzoyl)thiazol-2-yl]-4-chloro-3-fluoro-anilino)propanamide], the pIC50 is 6.37. In the case of `CC(C(N)=O)N(c1ccc(F)cc1)c1nc(N)c(C(=O)c2ccc(OCC(=O)NCc3nc4ccccc4[nH]3)cc2)s1` (racemic) [Example 98, rac-2-(N-[4-amino-5-[4-[2-(1H-benzimidazol-2-ylmethylamino)-2-oxo-ethoxy]benzoyl]thiazol-2-yl]-4-fluoro-anilino)propanamide] it was 7.13.

With `CC(C(N)=O)N(c1ccc(Cl)c(F)c1)c1nc(N)c(C(=O)c2ccc(OC(F)F)nc2)s1` (single isomer, unassigned) [Example 164.1, 2-(N-[4-amino-5-[6-(difluoromethoxy)pyridine-3-carbonyl]thiazol-2-yl]-4-chloro-3-fluoro-anilino)propanamide], the pIC50 is 8.30. In the case of `CC(C(N)=O)N(c1ccc(Cl)cc1)c1nc(N)c(C(=O)c2ccc(OC(F)F)cc2)s1` (single isomer, unassigned) [Example 47.1, 2-(N-[4-amino-5-[4-(difluoromethoxy)benzoyl]thiazol-2-yl]-4-chloro-anilino)propanamide], the pIC50 was 5.99. With `CC(C(N)=O)N(c1ccc(F)cc1)c1nc(N)c(C(=O)c2ccc(Oc3ccccc3)cc2)s1` (racemic) [Example 173, rac-2-(N-[4-amino-5-(4-phenoxybenzoyl)thiazol-2-yl]-4-fluoro-anilino)propanamide] the figure was 7.60; with `CC(C(N)=O)N(c1ccc(F)cc1)c1nc(N)c(C(=O)c2ccc(OCC(=O)Nc3ccc(C#N)cc3)cc2)s1` (racemic) [Example 92, rac-2-(N-[4-amino-5-[4-[2-(4-cyanoanilino)-2-oxo-ethoxy]benzoyl]thiazol-2-yl]-4-fluoro-anilino)propanamide], 7.78. Consider `CC(C(N)=O)N(c1ccc(F)cc1)c1nc(N)c(C(=O)c2ccc(Cl)c(Cl)c2)s1` (racemic) [Example 26, rac-2-(N-[4-amino-5-(3,4-dichlorobenzoyl)thiazol-2-yl]-4-fluoro-anilino)propanamide], for which the negative-log IC50 (pIC50) was 7.13.

For the origin of these results see patent US11964953B2, “Substituted aminothiazoles as DGKzeta inhibitors for immune activation” (Bayer Aktiengesellschaft, priority 2020, dated 2024).
